Calls of active or inactive are those of the source. No cut-off for these calls is given here.
How the values were obtained:
[1] = biological target: DNA topoisomerase 2-alpha (Homo sapiens) (UniProt P11388); assay: Inhibition of human recombinant topoisomerase 2-mediated relaxation of supercoiled plasmid pBR322 DNA at 8 uM
OVCAR-3 = assay: Antitumor activity against OVCAR-3 cells; assay type: functional; settings: Homo sapiens
ACHN = assay: Antitumor activity against ACHN cells; assay type: functional; settings: Homo sapiens
SK-MEL-2 = assay: Antitumor activity against SK-MEL-2 cells; assay type: functional; settings: Homo sapiens
SK-MEL-5 = assay: Antitumor activity against SK-MEL-5 cells; assay type: functional; settings: Homo sapiens
HOP-92 = assay: Antitumor activity against HOP92 cells; assay type: functional; settings: Homo sapiens
Hs-578T = assay: Antitumor activity against HS578T cells; assay type: functional; settings: Homo sapiens
UACC-62 = assay: Antitumor activity against UACC62 cells; assay type: functional; settings: Homo sapiens
UACC-257 = assay: Antitumor activity against UACC257 cells; assay type: functional; settings: Homo sapiens
RPMI-8226 = assay: Antitumor activity against RPMI8226 cells; assay type: functional; settings: Homo sapiens
NCI/ADR-RES = assay: Antitumor activity against NCI/ADRRES cells; assay type: functional; settings: Homo sapiens
K562 = assay: Antitumor activity against K562 cells; assay type: functional; settings: Homo sapiens
[2] = Antitumor activity against HL60(TB) cells; assay type: functional, HL-60(TB); settings: Homo sapiens, HL-60
SK-OV-3 = assay: Antitumor activity against SKOV3 cells; assay type: functional; settings: Homo sapiens
NCI-H23 = assay: Antitumor activity against NCI-H23 cells; assay type: functional; settings: Homo sapiens
SNB-19 = assay: Antitumor activity against SNB19 cells; assay type: functional; settings: Homo sapiens
MDA-MB-231 = assay: Antitumor activity against MDA-MB-231 cells; assay type: functional; settings: Homo sapiens
NCI-H522 = assay: Antitumor activity against NCI-H522 cells; assay type: functional; settings: Homo sapiens
HOP-62 = assay: Antitumor activity against HOP62 cells; assay type: functional; settings: Homo sapiens
NCI-H460 = assay: Antitumor activity against NCI-H460 cells; assay type: functional; settings: Homo sapiens
EKVX = assay: Antitumor activity against EKVX cells; assay type: functional; settings: Homo sapiens
SW-620 = assay: Antitumor activity against SW620 cells; assay type: functional; settings: Homo sapiens
IGROV-1 = assay: Antitumor activity against IGROV1 cells; assay type: functional; settings: Homo sapiens
HCT-15 = assay: Antitumor activity against HCT15 cells; assay type: functional; settings: Homo sapiens
RXF 393 = assay: Antitumor activity against RXF393 cells; assay type: functional; settings: Homo sapiens
NCI-H322M = assay: Antitumor activity against NCI-H322M cells; assay type: functional; settings: Homo sapiens
Malme-3M = assay: Antitumor activity against MALME-3M cells; assay type: functional; settings: Homo sapiens
MDA-MB-435 = assay: Antitumor activity against MDA-MB-435 cells; assay type: functional; settings: Homo sapiens
OVCAR-8 = assay: Antitumor activity against OVCAR8 cells; assay type: functional; settings: Homo sapiens
BT-549 = assay: Antitumor activity against BT549 cells; assay type: functional; settings: Homo sapiens
OVCAR-5 = assay: Antitumor activity against OVCAR5 cells; assay type: functional; settings: Homo sapiens
SF-539 = assay: Antitumor activity against SF539 cells; assay type: functional; settings: Homo sapiens
SR = assay: Antitumor activity against SR cells; assay type: functional; settings: Homo sapiens
OVCAR-4 = assay: Antitumor activity against OVCAR4 cells; assay type: functional; settings: Homo sapiens
CAKI-1 = assay: Antitumor activity against CAKI1 cells; assay type: functional; settings: Homo sapiens
UO-31 = assay: Antitumor activity against UO31 cells; assay type: functional; settings: Homo sapiens
SF-295 = assay: Antitumor activity against SF295 cells; assay type: functional; settings: Homo sapiens
SNB-75 = assay: Antitumor activity against SNB75 cells; assay type: functional; settings: Homo sapiens
A498 = assay: Antitumor activity against A498 cells; assay type: functional; settings: Homo sapiens
SF-268 = assay: Antitumor activity against SF268 cells; assay type: functional; settings: Homo sapiens
M14 = assay: Antitumor activity against M14 cells; assay type: functional; settings: Homo sapiens
HT-29 = assay: Antitumor activity against HT29 cells; assay type: functional; settings: Homo sapiens
SK-MEL-28 = assay: Antitumor activity against SK-MEL-28 cells; assay type: functional; settings: Homo sapiens
LOX IMVI = assay: Antitumor activity against LOX-IMVI cells; assay type: functional; settings: Homo sapiens
[3] = biological target: DNA topoisomerase 2-alpha (Homo sapiens) (UniProt P11388); assay: Inhibition of human recombinant topoisomerase 2-mediated relaxation of supercoiled plasmid pBR322 DNA at 100 uM
NCI-H226 = assay: Antitumor activity against NCI-H226 cells; assay type: functional; settings: Homo sapiens
MCF7 = assay: Antitumor activity against MCF7 cells; assay type: functional; settings: Homo sapiens
DU-145 = assay: Antitumor activity against DU145 cells; assay type: functional; settings: Homo sapiens
U-251 = assay: Antitumor activity against U251 cells; assay type: functional; settings: Homo sapiens
PC-3 = assay: Antitumor activity against PC3 cells; assay type: functional; settings: Homo sapiens
A549 = assay: Antitumor activity against A549 cells; assay type: functional; settings: Homo sapiens
HCT-116 = assay: Antitumor activity against HCT116 cells; assay type: functional; settings: Homo sapiens
TK-10 = assay: Antitumor activity against TK10 cells; assay type: functional; settings: Homo sapiens
T47D = assay: Antitumor activity against T47D cells; assay type: functional; settings: Homo sapiens
786-0 = assay: Antitumor activity against 7860 cells; assay type: functional; settings: Homo sapiens
KM12 = assay: Antitumor activity against KM12 cells; assay type: functional; settings: Homo sapiens
COLO 205 = assay: Antitumor activity against COLO205 cells; assay type: functional; settings: Homo sapiens
HCC 2998 = assay: Antitumor activity against HCC2998 cells; assay type: functional; settings: Homo sapiens
CCRF-CEM = assay: Antitumor activity against CCRF-CEM cells; assay type: functional; settings: Homo sapiens
MOLT-4 = assay: Antitumor activity against MOLT4 cells; assay type: functional; settings: Homo sapiens
[4] = biological target: DNA topoisomerase 2-alpha (Homo sapiens) (UniProt P11388); assay: Inhibition of human recombinant topoisomerase 2-mediated relaxation of supercoiled plasmid pBR322 DNA at 50 uM
SN12C = assay: Antitumor activity against SN12C cells; assay type: functional; settings: Homo sapiens
[5] = read-out: LC50 (the source's name)

Chain of DNA topoisomerase 2-alpha (Homo sapiens) (P11388 whole entry): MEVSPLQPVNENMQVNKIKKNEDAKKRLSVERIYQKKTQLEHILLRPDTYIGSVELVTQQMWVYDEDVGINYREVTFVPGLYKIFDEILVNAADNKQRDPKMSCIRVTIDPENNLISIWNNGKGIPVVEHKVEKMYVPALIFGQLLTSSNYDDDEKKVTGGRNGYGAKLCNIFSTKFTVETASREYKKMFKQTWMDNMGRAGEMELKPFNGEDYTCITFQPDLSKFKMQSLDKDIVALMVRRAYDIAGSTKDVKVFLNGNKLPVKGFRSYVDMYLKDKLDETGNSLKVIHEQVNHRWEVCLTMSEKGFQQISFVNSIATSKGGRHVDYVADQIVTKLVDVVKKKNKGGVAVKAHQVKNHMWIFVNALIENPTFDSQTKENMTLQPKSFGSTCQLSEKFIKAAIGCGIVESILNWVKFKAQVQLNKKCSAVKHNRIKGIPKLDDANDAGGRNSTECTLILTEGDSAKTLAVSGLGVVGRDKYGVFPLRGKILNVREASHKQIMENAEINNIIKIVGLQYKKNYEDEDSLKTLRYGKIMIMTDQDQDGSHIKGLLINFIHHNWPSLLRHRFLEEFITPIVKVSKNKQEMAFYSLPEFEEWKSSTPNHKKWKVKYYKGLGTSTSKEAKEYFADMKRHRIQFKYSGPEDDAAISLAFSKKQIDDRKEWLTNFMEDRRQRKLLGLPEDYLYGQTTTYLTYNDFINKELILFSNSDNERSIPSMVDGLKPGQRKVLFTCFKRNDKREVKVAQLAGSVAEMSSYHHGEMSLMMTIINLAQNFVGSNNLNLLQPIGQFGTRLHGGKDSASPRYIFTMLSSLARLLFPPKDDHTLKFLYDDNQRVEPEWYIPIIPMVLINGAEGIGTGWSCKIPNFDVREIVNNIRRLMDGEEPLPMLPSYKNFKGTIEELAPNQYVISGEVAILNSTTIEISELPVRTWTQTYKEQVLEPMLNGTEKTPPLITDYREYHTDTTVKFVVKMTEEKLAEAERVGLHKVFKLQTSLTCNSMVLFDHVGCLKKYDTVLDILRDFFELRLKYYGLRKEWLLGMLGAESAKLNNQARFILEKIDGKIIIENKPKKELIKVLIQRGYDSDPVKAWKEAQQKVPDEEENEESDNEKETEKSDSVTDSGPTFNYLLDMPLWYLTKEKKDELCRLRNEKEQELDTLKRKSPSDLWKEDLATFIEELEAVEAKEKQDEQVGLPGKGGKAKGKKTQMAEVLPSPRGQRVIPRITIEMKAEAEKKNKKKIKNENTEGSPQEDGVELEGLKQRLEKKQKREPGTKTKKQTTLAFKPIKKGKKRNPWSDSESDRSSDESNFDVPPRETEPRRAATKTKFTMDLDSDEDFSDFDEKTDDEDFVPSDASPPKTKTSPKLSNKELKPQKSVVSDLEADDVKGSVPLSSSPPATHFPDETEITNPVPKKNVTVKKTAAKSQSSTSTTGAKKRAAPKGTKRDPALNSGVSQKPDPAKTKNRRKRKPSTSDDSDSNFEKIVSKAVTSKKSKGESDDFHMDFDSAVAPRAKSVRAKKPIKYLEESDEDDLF

Structure (SMILES): COc1cc(NS(C)(=O)=O)ccc1Nc1c2ccccc2nc2ccccc12
- Activity [1]: Active

Structure (SMILES): Cn1cc(-c2cc(-c3cn(C)c4ccc(Cl)cc34)[nH]n2)c2cc(Cl)ccc21
- GI50 (OVCAR-3): 4.41 µM
- GI50 (ACHN): 3.23 µM
- GI50 (SK-MEL-2): 2.34 µM
- GI50 (SK-MEL-5): 1.79 µM
- GI50 (HOP-92): 1.86 µM
- GI50 (Hs-578T): 3.27 µM
- GI50 (UACC-62): 1.63 µM
- GI50 (UACC-257): 4.27 µM
- GI50 (RPMI-8226): 6.79 µM
- GI50 (NCI/ADR-RES): 2.25 µM
- GI50 (K562): 2.78 µM
- GI50 [2]: 4.45 µM
- GI50 (SK-OV-3): 5.81 µM
- GI50 (NCI-H23): 2.49 µM
- GI50 (SNB-19): 4.09 µM
- GI50 (MDA-MB-231): 2.95 µM
- GI50 (NCI-H522): 1.75 µM
- GI50 (HOP-62): 7.98 µM
- GI50 (NCI-H460): 2.35 µM
- GI50 (EKVX): 3.15 µM
- GI50 (SW-620): 3.52 µM
- GI50 (IGROV-1): 2.55 µM
- GI50 (HCT-15): 3.01 µM
- GI50 (RXF 393): 3.03 µM
- GI50 (NCI-H322M): 5.73 µM
- GI50 (Malme-3M): 9.64 µM
- GI50 (MDA-MB-435): 2.99 µM
- GI50 (OVCAR-8): 4.03 µM
- GI50 (BT-549): 2.03 µM
- GI50 (OVCAR-5): 3.11 µM
- GI50 (SF-539): 1.81 µM
- TGI (SF-539): 3.47 µM
- CC50 (SF-539; [5]): 6.62 µM
- GI50 (SR): 2.36 µM
- GI50 (OVCAR-4): 5.82 µM
- GI50 (CAKI-1): 1.7 µM
- GI50 (UO-31): 3.01 µM
- GI50 (SF-295): 2.52 µM
- GI50 (SNB-75): 4.25 µM
- GI50 (A498): 2.44 µM
- GI50 (SF-268): 5.29 µM
- GI50 (M14): 2.15 µM
- GI50 (HT-29): 3.57 µM
- GI50 (SK-MEL-28): 4.8 µM
- GI50 (LOX IMVI): 1.7 µM
- TGI (LOX IMVI): 3.8 µM
- CC50 (LOX IMVI; [5]): 8.53 µM
- Activity [3]: Active
- GI50 (NCI-H226): 5.29 µM
- GI50 (MCF7): 2.64 µM
- GI50 (DU-145): 9.6 µM
- GI50 (U-251): 3.37 µM
- GI50 (PC-3): 3.05 µM
- GI50 (A549): 3.24 µM
- GI50 (HCT-116): 3.82 µM
- GI50 (TK-10): 5.16 µM
- GI50 (T47D): 4.06 µM
- GI50 (786-0): 3.41 µM
- GI50 (KM12): 3.45 µM
- GI50 (COLO 205): 2.22 µM
- GI50 (HCC 2998): 1.71 µM
- TGI (HCC 2998): 3.84 µM
- CC50 (HCC 2998; [5]): 8.63 µM
- GI50 (CCRF-CEM): 6.4 µM
- GI50 (MOLT-4): 1.55 µM

Structure (SMILES): Cn1cc(-c2cc(-c3cn(C)c4ccccc34)[nH]n2)c2ccccc21
- GI50 (OVCAR-3): 28.4 µM
- GI50 (ACHN): 7.67 µM
- GI50 (SK-MEL-2): 57.5 µM
- GI50 (SK-MEL-5): 13.1 µM
- GI50 (HOP-92): 2.06 µM
- GI50 (Hs-578T): 18.5 µM
- GI50 (UACC-62): 16.4 µM
- GI50 (UACC-257): 80.6 µM
- GI50 (RPMI-8226): 37.8 µM
- GI50 (NCI/ADR-RES): 27.6 µM
- GI50 (K562): 42.1 µM
- GI50 [2]: 15.4 µM
- GI50 (SK-OV-3): 31.6 µM
- GI50 (NCI-H23): 22 µM
- GI50 (SNB-19): 27 µM
- GI50 (MDA-MB-231): 8.06 µM
- GI50 (NCI-H522): 22.1 µM
- GI50 (HOP-62): 17.3 µM
- GI50 (NCI-H460): 4.48 µM
- GI50 (EKVX): 27.2 µM
- GI50 (SW-620): > 100 µM
- GI50 (IGROV-1): 8.9 µM
- Activity [4]: Active
- GI50 (HCT-15): 8.68 µM
- GI50 (RXF 393): 14.7 µM
- GI50 (NCI-H322M): > 100 µM
- GI50 (Malme-3M): 93.1 µM
- GI50 (OVCAR-8): 28.8 µM
- GI50 (BT-549): 15.9 µM
- GI50 (OVCAR-5): > 100 µM
- GI50 (SF-539): 16.2 µM
- GI50 (SR): 3.46 µM
- GI50 (OVCAR-4): 34.9 µM
- GI50 (CAKI-1): > 100 µM
- GI50 (UO-31): 37.6 µM
- GI50 (SN12C): 1.95 µM
- GI50 (SF-295): 17.1 µM
- GI50 (SNB-75): 18.4 µM
- GI50 (A498): 19.6 µM
- GI50 (SF-268): 16 µM
- GI50 (M14): > 100 µM
- GI50 (HT-29): 5.35 µM
- GI50 (SK-MEL-28): > 100 µM
- GI50 (LOX IMVI): 5.38 µM
- GI50 (NCI-H226): 19.8 µM
- GI50 (MCF7): 3.95 µM
- GI50 (DU-145): 15.6 µM
- GI50 (U-251): 12.9 µM
- GI50 (PC-3): 8.11 µM
- GI50 (A549): 16.3 µM
- GI50 (HCT-116): 19 µM
- GI50 (TK-10): 37.4 µM
- GI50 (T47D): 79.7 µM
- GI50 (786-0): 14.1 µM
- GI50 (KM12): 4.58 µM
- GI50 (COLO 205): 7.98 µM
- GI50 (HCC 2998): 4.74 µM
- GI50 (CCRF-CEM): 14.4 µM
- GI50 (MOLT-4): 4.75 µM
